The test system of assay [1] is pancreatic oncogenesis in KC mice. Kind of assay: KC mice endogenous pancreatic tumor model. It is filed as in vivo, mouse. Particulars: Dectin-1-/- mice, 20 mg/kg i.p. five times weekly, 8 weeks, vs vehicle. The source says:
C57BL/6 (H-2Kb) mice were purchased from Jackson Labs (Bar Harbor, Me.) and bred in-house. KC and KPC mice develop pancreatic neoplasia endogenously by expressing mutant Kras alone or mutant Kras and p53, respectively, in the progenitor cells of the pancreas (Hingorani et al., Cancer Cell, 2003, 4, 437-450; Hingorani et al., Cancer Cell, 2005, 7, 469-483). Tumor progression and survival in control KC mice has been previously detailed (Daley et al., Cell, 2016, 166, 1485-1499). Dectin-1^−/− mice were crossed with KC mice to generate KC; Dectin-1^−/− animals. For orthotopic pancreatic tumor challenge, mice were administered intra-pancreatic injections of either Kras^G12D PDEC or FC1242 tumor cells derived from KPC mice. Kras^G12D PDEC and FC1242 cells were generated as previously described (Pylayeva-Gupta et al., Cancer Cell, 2012, 21, 836-847; Zambirinis et al., J Exp Med., 2015, 212, 2077-2094). […] Mice were sacrificed 3 weeks later and tumor weight recorded. […] PDEC proliferation was measured using the XTT assay according to the manufacturer's protocol (Roche, Nutley, N.J.). […]
For histological analysis, pancreatic specimens were fixed with 10% buffered formalin, dehydrated in ethanol, embedded with paraffin, and stained with H&E or Gomori's Trichrome. The fraction of preserved acinar area was calculated as previously described (Seifert et al., Nature, 2016, 532, 245-249). […]

Assay [2] has as its system Dectin-1/Galectin-9 interaction. Kind of assay: Galectin-9 immunoprecipitation with PNGase F or lactose treatment. Type of assay: binding. To be noted: PNGase F pretreatment of Dectin-1 or 100 mM lactose pre-incubation of Galectin-9; SDS-PAGE. The procedure:
Dectin-1 IgG Fc (8 μg; InvivoGen) was treated with PNGase F (20 μl, ˜10,000 units; New England Biolabs) following the company's non-denaturing protocol (37° C., 24 hr). PNGase F treated and untreated Dectin-1 IgG Fc samples (4 μg; InvivoGen) were added to protein G beads (25 μl, Dynabeads Protein G; novex) and the mixtures were incubated at room temperature for 10 min. The beads were washed 2× with PBS-T (pH 7.4 with 0.02% tween). Recombinant mouse Galectin-9 (4 μg; R&D Systems) was resuspended in PBS-T or a solution of 100 mM lactose in PBS-T. Galectin-9 samples were then incubated with the Dynabead/Dectin-1 IgG Fc complex for 20 min at room temperature. The Dynabeads were then washed 3× with PBS-T and transferred to a clean tube. Galectin-9 and Dectin-1 IgG Fc were eluted in SDS-PAGE buffer (PBS with 10% BME) by heating at 98° C. for 10 min. The samples were then analyzed by SDS-PAGE and stained with Coomassie Blue.

Assay [3] deals with bone-marrow derived macrophages (BMDM). Kind of assay: Dectin-1 expression in bone-marrow derived macrophages. To be noted: cytokine added to day 8 BMDM cultures for 24h. Type of assay: cell-based, mouse.

Regarding `Oc1cc(O)cc(/C=C/c2ccc(O)c(O)c2)c1` [Piceatannol], in assay [1], the pancreatic tumor weight entry was “no effect”. Take `OC[C@H]1O[C@@H](O[C@H]2[C@H](O)[C@@H](O)C(O)O[C@@H]2CO)[C@H](O)[C@@H](O)[C@H]1O` (stereo partly shown) [lactose]: the “effect on Dectin-1/Galectin-9 binding” value in assay [2] is given as “no alteration of the Dectin-1/Galectin-9 interaction”. Take “TGF-3: cytokine added to BMDM cultures; printed TGF-β in methods”: in assay [3], the “Dectin-1 expression in BMDM” value was “did not influence Dectin-1 expression”. On the same count and under the same terms, the value for TNF-α was “did not influence Dectin-1 expression”.

Source of the values: US20180044422A1, “TREATING SOLID TUMOR BY TARGETING DECTIN-1 SIGNALING” (New York University, priority 2016, published 2018).
